The target in data set [1] is T1, recombinant human transglutaminase 2 (Homo sapiens, UniProt P21980).
T1 construct: purchased Zedira T022
T1 sequence (P21980 1-687): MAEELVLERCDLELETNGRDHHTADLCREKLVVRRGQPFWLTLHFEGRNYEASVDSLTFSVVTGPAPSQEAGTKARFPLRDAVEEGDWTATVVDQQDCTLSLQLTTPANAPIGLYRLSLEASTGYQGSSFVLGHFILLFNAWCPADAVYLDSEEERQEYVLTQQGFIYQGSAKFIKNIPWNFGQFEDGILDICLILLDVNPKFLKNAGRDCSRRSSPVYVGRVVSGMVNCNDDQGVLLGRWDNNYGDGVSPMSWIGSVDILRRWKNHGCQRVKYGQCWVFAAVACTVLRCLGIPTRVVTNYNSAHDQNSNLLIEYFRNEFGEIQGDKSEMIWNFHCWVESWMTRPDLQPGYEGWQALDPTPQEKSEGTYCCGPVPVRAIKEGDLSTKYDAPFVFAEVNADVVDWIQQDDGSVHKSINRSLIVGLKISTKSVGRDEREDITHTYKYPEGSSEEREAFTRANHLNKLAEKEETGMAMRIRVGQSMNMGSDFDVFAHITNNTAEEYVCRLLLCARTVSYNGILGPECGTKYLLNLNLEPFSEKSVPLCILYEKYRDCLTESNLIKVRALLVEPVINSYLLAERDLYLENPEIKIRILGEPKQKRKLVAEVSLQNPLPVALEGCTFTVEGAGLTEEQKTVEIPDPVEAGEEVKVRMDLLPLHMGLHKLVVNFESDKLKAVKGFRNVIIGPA
Put plainly: Transglutaminase assay (dansylcadaverine incorporation into dimethylcasein, DCC-assay). In kind it is biochemical. Particulars: recombinant human TG2 10 nM, dansylcadaverine/dimethylcasein, 37° C. A digest of the protocol:
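IC50 derived from fluorescence slope between 20 and 30 min (λex 330 nm, λem 500 nm, 37 °C), expressed relative to a 2% DMSO control. Reaction: 10 nM recombinant human TG2, 4 μM dimethylcasein, 16.7 μM dansylcadaverine, 10 mM CaCl2 and glutathione, pH 8.0.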

The nature of data set [2]: Log D shake flask method (octanol / PBS pH 7.4, HPLC). The class given is physicochemical. As to conditions: octanol/phosphate-buffered saline (PBS); octanol / PBS pH 7.4, shake flask. Here is the method:
In order to classify the inventive compounds according to their lipophilicity, Log D values (distribution coefficient) were determined by means of the well-established shake flask method, measuring the partition of a compound between an octanol and phosphate-buffered saline (PBS, pH 7.4) by HPLC.

Data set [3] is described as follows: Caco-2 permeability assay (CacoReady kit). The class given is in vitro ADME. Particulars: human. A digest of the protocol:
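Intestinal permeability modelled with kit-supplied Caco-2 barriers, run as the maker specifies; each compound reported as Papp.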

Drawing on US20240317708A1, “INHIBITORS OF TRANSGLUTAMINASES” (ZEDIRA GMBH, priority 2021, published 2024), this text covers IC50, logD and Papp for seven compounds.

Structures are written as SMILES. Where only a bound is given, the exact number is not on record here.

For the compound `COC(=O)/C=C/CC[C@H](NC(=O)c1oc2ccccc2c1C)C(=O)Nc1cccn(CC(=O)N[C@@H]2C[C@@H]3C[C@H]([C@H]2C)C3(C)C)c1=O` [III-69, (S,E)-methyl 6-(3-methylbenzofuran-2-carboxamido)-7-oxo-7-(2-oxo-1-(2-oxo-2-((1R,2R,3R,5S)-2,6,6-trimethylbicyclo[3.1.1]heptan-3-ylamino)ethyl)-1,2-dihydropyridin-3-ylamino)hept-2-enoate], the half-maximal inhibitory concentration (IC50) in data set [1] was below 25 nM. Besides, the logD in data set [2] lay within 3 to 5. This compound had a Papp in data set [3] of 1 to 10 ×10⁻⁶ cm/s.

Consider `COC(=O)/C=C/CC[C@H](NC(=O)c1oc2ccccc2c1C)C(=O)Nc1cccn(CC(=O)N[C@H]2C[C@H]3C[C@@H]([C@@H]2C)C3(C)C)c1=O` [III-70, (S,E)-methyl 6-(3-methylbenzofuran-2-carboxamido)-7-oxo-7-(2-oxo-1-(2-oxo-2-((1S,2S,3S,5R)-2,6,6-trimethylbicyclo[3.1.1]heptan-3-ylamino)ethyl)-1,2-dihydropyridin-3-ylamino)hept-2-enoate], for which the IC50 in data set [1] was below 25 nM. The compound also gave a logD in data set [2] of 3 to 5. The Papp in data set [3] is 1 to 10 ×10⁻⁶ cm/s.

As to `COC(=O)/C=C/CC[C@H](NC(=O)c1oc2ccccc2c1C)C(=O)Nc1cccn(CC(=O)NC[C@@H]2CC[C@H]3C[C@@H]2C3(C)C)c1=O` [III-71, (S,E)-methyl 7-(1-(2-(((1S,2R,5S)-6,6-dimethylbicyclo[3.1.1]heptan-2-yl)methylamino)-2-oxoethyl)-2-oxo-1,2-dihydropyridin-3-ylamino)-6-(3-methylbenzofuran-2-carboxamido)-7-oxohept-2-enoate], the half-inhibitory concentration (IC50) in data set [1] fell in the range of 25 to 250 nM. Besides, in data set [2], the logD fell in the range of 3 to 5. Moreover, in data set [3], the Papp lay within 1 to 10 ×10⁻⁶ cm/s.

For the compound `COC(=O)/C=C/CC[C@H](NC(=O)c1oc2ccccc2c1C)C(=O)Nc1cccn(CC(=O)NC23CCCC4CC(CCC42)C3)c1=O` (stereo partly drawn) [III-72, (S,E)-methyl 7-(1-(2-(4-homoisotwistane-3-amino)-2-oxoethyl)-2-oxo-1,2-dihydropyridin-3-ylamino)-6-(3-methylbenzofuran-2-carboxamido)-7-oxohept-2-enoate], the 50% inhibitory concentration (IC50) in data set [1] was 25 to 250 nM. In data set [2], this compound came in with a logD of 3 to 5. Further, in data set [3], the Papp is 1 to 10 ×10⁻⁶ cm/s.

In the case of `COC(=O)/C=C/CC[C@H](NC(=O)c1oc2ccccc2c1C)C(=O)Nc1cccn(CC(=O)NC23CC4CC5C2C[C@@H]2C[C@H]5C(C4)[C@H]3C2)c1=O` [III-73, (S,E)-methyl 7-(1-(2-(diamantane-1-amino)-2-oxoethyl)-2-oxo-1,2-dihydropyridin-3-ylamino)-6-(3-methylbenzofuran-2-carboxamido)-7-oxohept-2-enoate], the IC50 in data set [1] was below 25 nM. In addition, in data set [2], the logD lay in the range of 3 to 5. Moreover, the Papp in data set [3] lay within 1 to 10 ×10⁻⁶ cm/s.

With `Cc1c(C(=O)N[C@@H](CC/C=C/C(=O)N(C)C)C(=O)Nc2cccn(CC(=O)NC3C4CC5CC(C4)CC3C5)c2=O)oc2ccccc12` (stereo partly drawn) [III-75, (S,E)-N^7-(1-(2-(2-adamantylamino)-2-oxoethyl)-2-oxo-1,2-dihydropyridin-3-yl)-N^1,N^1-dimethyl-6-(3-methylbenzofuran-2-carboxamido)hept-2-enediamide], in data set [1], the IC50 fell in the range of 25 to 250 nM. In addition, the logD in data set [2] was 3 to 5. The same compound came in with a Papp in data set [3] of 1 to 10 ×10⁻⁶ cm/s.

With `CN(C)C(=O)/C=C/CC[C@H](NC(=O)c1cncn1C)C(=O)Nc1cccn(CC(=O)NC2C3CC4CC(C3)CC2C4)c1=O` (stereo partly drawn) [III-76, (S,E)-N^7-(1-(2-(2-adamantylamino)-2-oxoethyl)-2-oxo-1,2-dihydropyridin-3-yl)-N^1,N^1-dimethyl-6-(1-methyl-1H-imidazole-5-carboxamido)hept-2-enediamide], the IC50 in data set [1] fell in the range of 25 to 250 nM. Besides, the logD in data set [2] is 1 to 3. Moreover, the apparent permeability coefficient (Papp) in data set [3] was below 1 ×10⁻⁶ cm/s.
